Source: article PMC11558998, “Lipophilic bisphosphonates reduced cyst burden and ameliorated hyperactivity of mice chronically infected with Toxoplasma gondii” (mBio, 2024)

Key:
[1] = system: ex vivo bradyzoites of Me49-RFP from brains of chronically infected mice; test: Ex vivo bradyzoite viability assay, Me49-RFP; assay type: cell-based, Toxoplasma gondii; conditions: inhibitors 4 hours then drug-free 14 days, 3x EC50
Description: (§1) Brains of chronically infected mice were collected, homogenized with seven strokes in a glass homogenizer, and then enumerated on a Delta Vision microscope [protocol adapted from reference ([45])]. Twenty-five cysts per plate were then placed in a tube for acid/pepsin (170 mM sodium chloride, 60 mM hydrochloric acid, and 0.1 mg/mL pepsin) treatment for 10 minutes in a 37°C water bath. The cysts were then neutralized with 94 mM Na2CO3. The liberated bradyzoites were then equally distributed into a 12-well plate. For the growth assay, the cells were grown in the presence of compounds or DMSO for 12 and 14 days undisturbed. For the viability assays, the cells were treated with compounds or DMSO for 4 hours before being washed with 1× PBS and then grown for 12 and 14 days in media without compounds. After 12 and 14 days, the cells were fixed with 100% ethanol and stained with 2.5× crystal violet. The control DMSO plaque image is duplicated from Fig. 2B to be used as the representative image of plaques in Fig. 2A. Plaques were quantified on a light microscope using the 4× objective and the size of the plaques was measured using Fiji (ImageJ) software.

[2] = system: in vitro differentiated Me49 bradyzoites (cysts); test: Vacuole size of in vitro differentiated Me49 cysts (DBA/SAG1 IFA); assay type: cell-based, Toxoplasma gondii; conditions: 4 days, ambient CO2
Description: (§2) Type II Me49 or Pru was differentiated using compound 1 as previously described ([50]). Confluent HFF monolayers on glass coverslips (preincubated for 2 hours with 3 µM compound 1, as described previously) were infected with 5 × 10^3 tachyzoites of the ME49 or Pru (type 2) or EGS (type I/III) strain (no compound 1 for EGS). The cells were allowed to grow and differentiate in a 37°C incubator with ambient CO2 for 3 days (EGS was allowed to spontaneously differentiate for 4 days). […] After 7 days (Me49) or 8 days (EGS) of incubation, the cells were fixed with 3% paraformaldehyde for 10 minutes, permeabilized with 0.25% Triton X-100 for 10 minutes, and then blocked in 3% bovine serum albumin for 1 hour. The coverslips were then incubated in DBA rhodamine (for Me49)([51]) or DBA lectin (a kind gift from Diego Huet for EGS) and anti-SAG1 rat antibody (a kind gift from Vern Carruthers) for 2 hours. Then, the secondary anti-rat 488 was used to visualize the SAG1 antibody. The cells were then mounted onto microscope slides with fluoromount and DAPI (4′,6-diamidino-2-phenylindole). The slides were placed in the fridge for a minimum of 24 hours before imaging on a Delta Vision microscope. The vacuole sizes were calculated using ImageJ software.

[3] = system: in vitro differentiated Me49 bradyzoites; test: In vitro bradyzoite viability assay (plaques); assay type: cell-based, Toxoplasma gondii; conditions: Me49 bradyzoites treated 4 days at 3x and 5x EC50, then plaques 14 or 16 days, vs DMSO
Description: The protocol for in vitro viability assay was adapted from Zwicker et al. ([52]). Confluent HFF monolayers (preincubated for 2 hours with 3 µM compound 1) were infected with 5 × 10^3 tachyzoites of the ME49 (type 2) strain. After 24 hours, the compound 1 was removed to avoid toxicity to the host cells. The cells were allowed to grow and differentiate in a 37°C incubator with ambient CO2 for 3 days. […] After 7 days of differentiation, the cysts were collected by scraping the monolayers, syringe lysing the parasites, and treatment with acid/pepsin (170 mM sodium chloride, 60 mM hydrochloric acid, and 0.1 mg/mL pepsin) for 30 minutes in a 37°C water bath. The cysts were then neutralized with 94 mM sodium carbonate (Na2CO3) and enumerated. Ten thousand bradyzoites were plated per well in a six-well plate and allowed to grow undisturbed in a 37°C incubator with 5% CO2 for 14 or 16 days. At this time, cultures were fixed with 100% ethanol and stained with 2.5× crystal violet. The control DMSO plaque image is duplicated from Fig. 1E to be used as the representative image of plaques in Fig. 1D. Plaques were quantified using a light microscope using the 4× objective.

[4] = system: hyperactivity of Balb/c mice chronically infected with Pru-GFP; test: CageDot continuous monitoring of mouse activity during chronic infection; conditions: 1 mg/kg/day i.p. 16 days, 15 dpt and 2 wpt
Description: At this time, the remaining mice were injected i.p. daily for 16 consecutive days with 200 µL solvent (10% Kolliphor HS-15) or compounds dissolved in 10% HS-15. […] Mice were euthanized humanely 2 weeks after the final injection.
Mice were monitored during the infection using the CageDot ([30], [31]), which detects vibrations. […] Data are collected at a 100 Hz sampling rate (each second, 100 data points were collected).

[5] = system: RH-RFP tachyzoites in Swiss Webster mice; conditions: RH parasites; cited from earlier work
[6] = system: ex vivo bradyzoites of the Pru strain from chronically infected mice; test: Ex vivo bradyzoite growth assay, Pru; assay type: cell-based, Toxoplasma gondii; conditions: 3x EC50
Description: as §1

[7] = system: Me49-RFP brain tissue cysts in Swiss Webster mice; test: Treatment of Swiss Webster mice chronically infected with Me49-RFP; assay type: in vivo, Toxoplasma gondii; conditions: Swiss Webster mice, 5,000 Me49-RFP i.p., BPH-1218 at 1 mg/kg daily for 16 days
[8] = system: type I/III EGS strain cysts; test: Vacuole size of spontaneously formed EGS cysts; assay type: cell-based, Toxoplasma gondii; conditions: EGS spontaneous cysts, 3x EC50, 4 days
Description: as §2

[9] = system: in vitro derived Pru cysts; test: Vacuole size of in vitro derived Pru cysts; assay type: cell-based, Toxoplasma gondii
Description: as §2

[10] = system: ex vivo bradyzoites of the Pru strain from chronically infected mice; test: Ex vivo bradyzoite viability assay, Pru; assay type: cell-based, Toxoplasma gondii; conditions: 3x EC50
Description: as §1

[11] = system: Pru-GFP brain tissue cysts in Balb/c mice; test: Treatment of Balb/c mice chronically infected with Pru-GFP; conditions: Balb/c mice, 1,500 Pru-GFP i.p., 1 mg/kg/day i.p. for 16 days from 28 dpi
Description: BALB/c male mice (Jackson Laboratory) were injected i.p. with a 200 µL suspension of 1,500 tachyzoites of the Pru-GFP strain T. gondii (type II genotype) (a gift from Laura Knoll). […] At 4 weeks post-infection, the brains of two mice were collected to check for the presence of cysts and to confirm that the mice were in the chronic stage. At this time, the remaining mice were injected i.p. daily for 16 consecutive days with 200 µL solvent (10% Kolliphor HS-15) or compounds dissolved in 10% HS-15. […] Mice were euthanized humanely 2 weeks after the final injection. The mouse brains were collected in 1 mL sterile PBS, minced with scissors, and homogenized using a glass homogenizer. Four 20 µL samples (80 µL total or 8% of sample) of each brain homogenate were placed on a glass microscope slide. Cysts were enumerated using a Delta Vision fluorescence microscope.

[12] = system: RH-RFP tachyzoites in Swiss Webster mice; test: Mice infected with a lethal dose of T. gondii (acute infection); assay type: in vivo, Toxoplasma gondii; conditions: 100 RH-RFP tachyzoites i.p., daily i.p. treatment for 10 days starting 6 hours after infection
Description: Experiments were carried out as described previously ([16]) using 100 T. gondii tachyzoites of the RH td-Tomato strain (RH-RFP) to infect female Swiss Webster mice. Drugs were dissolved in 10% Kolliphor HS-15 and were inoculated i.p. starting 6 hours after infection and administered for 10 days. The survival of mice was monitored along with their weight. Mice were sacrificed if they lost over 20% of their body weight. Surviving mice were challenged on day 30 post-infection with 10,000 RH-RFP tachyzoites. Blood was collected at 30 dpi (before challenge) and at the time of euthanasia (3 weeks post challenge) to analyze the presence of T. gondii antibodies. To test for antibodies, we ran a western blot with RH-RFP lysate protein and probed the membrane with the serum collected from the mice. Protein extraction and western blot conditions were as done previously ([20]). After blocking with 5% milk in PBS-T (0.1% Tween 20 in phosphate buffered saline [PBS]), we washed the membrane three times for 5 minutes with PBS-T and attached it to the BioRad multiscreen tool. The RH-RFP lysate was ran throughout the whole gel to allow for testing of different serum (antibodies) on the same membrane. […]

T. gondii = system: T. gondii; parameters: method as in PMID 17069459; conditions: cited from earlier work

Compound	number of plaques, ex vivo viability [1]	vacuole size ([2]; 3x EC50 against tachyzoites)	vacuole size ([2]; 5x EC50 against tachyzoites)	number of plaques (bradyzoite viability) [3]	activity of infected mice (nightly average energy, CageDot) [4]	protection against lethal acute infection [5]	number of plaques, ex vivo growth [6]	reduction of cyst burden [7]	size of the vacuoles (cysts) [8]	vacuole size [9]	number of plaques, ex vivo viability [10]	reduction of cyst burden [11]	protection against lethal acute infection (survival) [12]	induction of bradyzoite-specific antigen 1 (T. gondii)	replication of T. gondii (T. gondii)
CCCCCCCCCCn1cc[n+](CC(P(=O)([O-])O)P(=O)(O)O)c1 (stereo not drawn) [BPH-1218]	reduced the viability of ex vivo bradyzoites	showed the same effect on vacuole size	diminished vacuole size	plaque number was significantly reduced	decreased the activity of the infected mice to similar levels of the control uninfected mice	protected mice against a lethal acute infection	significant reduction in the number of plaques	73.6%	reduced the size of the vacuoles	decreased the vacuole size	significant reduction in the number of plaques	74.0%			
CCCCCCCCCCCn1cc[n+](CC(O)(P(=O)([O-])O)P(=O)(O)O)c1 (stereo not drawn) [BPH-1236]	reduced the viability of ex vivo bradyzoites		diminished vacuole size	plaque number was significantly reduced			significant reduction in the number of plaques		reduced the size of the vacuoles		significant reduction in the number of plaques		protected mice against the acute infection		
CCCCCCCCCn1cc[n+](CC(O)(P(=O)([O-])O)P(=O)(O)O)c1 (stereo not drawn) [BPH-1238]	reduced the viability of ex vivo bradyzoites		diminished vacuole size	plaque number was significantly reduced			significant reduction in the number of plaques		reduced the size of the vacuoles		significant reduction in the number of plaques				
CN1CCC(c2cc(-c3ccncc3)c(-c3ccc(F)cc3)[nH]2)CC1 [Compound 1, 4-[2-(4-fluorophenyl)-5-(1-methylpiperidine-4-yl)-1H-pyrrol-3-yl]pyridine]														potent inducer of bradyzoite-specific antigen 1	dramatically slow the replication
